{"source": "patent US9890192B2", "about": "“Targeted nitroxide agents” (University of Pittsburgh—of the Commonwealth System of …, priority 2008, dated 2018)", "key": {"[1]": {"system": "progeroid Ercc1−/Δ mice", "assay": "Signs of aging in progeroid Ercc1−/Δ mice", "format": "in vivo, mouse", "details": "2 mg/kg intraperitoneally three times per week", "protocol": "To assess the effectiveness of XJB-5-131 in inhibiting degeneration and/or signs of aging, the compound was administered, over an 18-21 week period, progeroid Ercc1^−/Δ mice, at a dose of 2 mg/kg in sunflower oil carrier (to promote solubility) administered intraperitoneally three times per week (FIG. 32). Sunflower seed oil was administered to twin Ercc1^−/Δ mice according to the same schedule as a control. The treated and control mice were monitored twice a week for weight and symptom/sign development.\nFIG. 33 presents a summary table showing the results of the treatment with XJB-5-131 (“XJB” in this figure), relative to control (sunflower seed oil) after treatment from 5 wks of life until death. The numbers indicate the average age at onset of each age-related symptom for mice treated with XJB-5-131 or vehicle only (oil) (n=5 mice per group). […] Of note, all of the signs of neurodegeneration, including dystonia, trembling, ataxia, wasting and urinary incontinence were delayed in the treated animals, providing strong evidence that XJB-5-131 protects neurons against degenerative changes caused by oxidative stress.\nTo assess the ability of XJB-5-131 to inhibit deterioration of intervertebral discs (an index of degenerative disease of the vertebra), the level of glycosaminoglycan in the discs in treated and control mice were measured, and the results are shown in FIG. 34. The intervertebral discs of treated mice contained approximately 30 percent more glycosaminoglycan relative to control mice, indicating inhibition of disc degeneration."}, "[2]": {"system": "phospholipids in intestinal mucosa", "assay": "Peroxidation of phospholipids in gut mucosa after hemorrhagic shock", "format": "in vivo, rat", "details": "10 μM intraluminal; 2 h HS", "from_the_text": "Assay for peroxidation of phospholipods. Gut mucosal samples were homogenized. Lipids were extracted from homogenates using the Folch procedure, see M. Lees and G. H. Sloan-Stanley, A simple method for isolation and purification of total lipids from animal tissue, J. BIOL. CHEM. 226:497-509 (1957), and resolved by 2D HPTLC (High Performance Thin Layer Chromatography) as previously described, see Kagan, V. E. et al., A role for oxidative stress in apoptosis: Oxidation and externalization of phosphatidylserine is required for macrophage clearance of cell undergoing Fas-mediated apoptosis, J Immunol. 169:487-489 (2002). Spots of phospholipids were scraped from HPTLC plates and phospholipids were extracted from silica. Lipid phosphorus was determined by a micro-method, see Bottcher, C. J. F. et al, A rapid and sensitive sub-micro phosphons determination. Anal Chim Acta. 24: 203-204 (1961).\nOxidized phospholipids were hydrolyzed by pancreatic phospholipase A2 (2 U/μl) in 25 mM phosphate buffer containing 1 mM CaCl2. 0.5 mM EDTA and 0.5 mM sodium dodecyl sulfate (SDS) (pH 8.0, at room temperature for 30 min). Fatty acid hydroperoxides formed were determined by fluorescence HPLC of resorufin stoichiometrically formed during their microperoxidase 11-catalized reduction in presence of Amplex Red (for 40 min at 4° C.) (8). Fluorescence HPLC (Eclipse XDB-C18 column, 5 μm, 150×4.6 mm, mobile phase was composed of 25 mM disodium phosphate buffer (pH 7.0)/methanol (60:40 v/v); excitation wavelength 560 nm, emission wavelength 590 nm) was performed on a Shimadzu LC-100AT HPLC system equipped with fluorescence detector (RF-10Axl) and autosampler (SIL-10AD).\nIn the subsequent series of in vivo studies, the affect of intraluminal XJB-5-131 on hemorrhage-induced peroxidation of phospholipids in intestinal mucosa was examined. […] In a preferred embodiment, 0.3 mL of test solution filled the lumen of each ileal compartment.\nAfter two hours of HS, samples of ileal mucosa from the gut sacs filled with the vehicle and XJB-5-131 were obtained and compared with ileal mucosa of normal MECs. […]"}}, "note": "“Also recorded” adds a separate entry of the source."}
{"molecule": "CC(C)C[C@@H](/C=C/[C@H](Cc1ccccc1)C(=O)N1CCC[C@H]1C(=O)N[C@H](C(=O)N[C@@H](CCCNC(=O)OCc1ccccc1)C(=O)NC1CC(C)(C)N([O])C(C)(C)C1)C(C)C)NC(=O)OC(C)(C)C", "note": "[XJB-5-131]", "values": [{"measurement": "age at onset of age-related symptoms", "setting": "[1]", "value": "significantly delayed"}, {"measurement": "body weight / tolerability", "setting": "[1]", "value": "did not lose weight; also recorded: does not cause weight loss"}, {"measurement": "glycosaminoglycan in intervertebral discs, more relative to control mice", "setting": "[1]", "value": "approximately 30%"}, {"measurement": "overall aging score", "setting": "[1]", "value": "significantly improved"}, {"measurement": "signs of neurodegeneration (dystonia, trembling, ataxia, wasting, urinary incontinence)", "setting": "[1]", "value": "delayed"}, {"measurement": "peroxidation of phosphatidylcholine (PC)", "setting": "[2]", "value": "no effect"}, {"measurement": "peroxidation of phosphatidylethanolamine (PE)", "setting": "[2]", "value": "only had a small effect"}, {"measurement": "peroxidation of phosphatidylserine (PS)", "setting": "[2]", "value": "no effect"}]}
